Measurements as given in ChEMBL document CHEMBL4033749, “Synthesis and biological evaluation of 5-fatty-acylamido-1, 3, 4-thiadiazole-2-thioglycosides” (Bioorg Med Chem Lett, 2017).
pIC50: −log10 of the molar value. Values after ≈ are worked out from the molar mass of the structure shown. Active and inactive are the calls of the source. The rule behind the calls is not given here.

Key:
Klebsiella pneumoniae = test: Antibacterial activity Klebsiella pneumoniae MTCC 618 by agar well method; format: functional
Bacillus subtilis = test: Antibacterial activity Bacillus subtilis MTCC 441 by agar well method; format: functional
Staphylococcus aureus = test: Antibacterial activity Staphylococcus aureus MTCC 96 by agar well method; format: functional
[1] = system: Staphylococcus epidermidis; test: Antibacterial activity Staphylococcus epidermidis MTCC 9041 by agar well method; format: functional
Escherichia coli = test: Antibacterial activity Escherichia coli MTCC 443 by agar well method; format: functional
Pseudomonas aeruginosa = test: Antibacterial activity Pseudomonas aeruginosa MTCC 1688 by agar well method; format: functional
SK-OV-3 = test: Cytotoxicity against human SKOV3 cells incubated for 24 hrs by MTT asasy; format: functional, cell-based; details: sk-ov-3
HeLa = test: Cytotoxicity against human HeLa cells incubated for 24 hrs by MTT asasy; format: functional, cell-based; details: Homo sapiens, HeLa, 24 h; read-out: IC50
MDA-MB-231 = test: Cytotoxicity against human MDA-MB-231 cells incubated for 24 hrs by MTT asasy; format: functional, cell-based; details: Homo sapiens, MDA-MB-231, 24 h; read-out: IC50
DU-145 = test: Cytotoxicity against human DU145 cells incubated for 24 hrs by MTT asasy; format: functional, cell-based; details: for pIC50: Homo sapiens, DU-145, 24 h, read-out: IC50; for IC50: du-145
CHO-K1 = test: Cytotoxicity against CHOK1 cells incubated for 24 hrs by MTT asasy; format: cell-based, Cricetulus griseus; details: for pIC50: Cricetulus griseus, CHO-K1, 24 h, read-out: IC50; for IC50: cho-k1

## CCCCCCCCCCCCCC(=O)Nc1nnc(S[C@@H]2O[C@H](COC(C)=O)[C@H](OC(C)=O)[C@H](OC(C)=O)[C@H]2OC(C)=O)s1
Klebsiella pneumoniae
  MIC: inactive
Bacillus subtilis
  MIC: inactive
Staphylococcus aureus
  MIC: inactive
[1]
  MIC: inactive
Escherichia coli
  MIC: inactive
Pseudomonas aeruginosa
  MIC: inactive
SK-OV-3
  IC50: Not Active
HeLa
  pIC50: 4.21
MDA-MB-231
  pIC50: 4.58
DU-145
  pIC50: 4.46
CHO-K1
  pIC50: 4.79

## CCCCCCCCCCCCCCCCCC(=O)Nc1nnc(S[C@@H]2O[C@H](COC(C)=O)[C@H](OC(C)=O)[C@H](OC(C)=O)[C@H]2OC(C)=O)s1
Klebsiella pneumoniae
  MIC: inactive
Bacillus subtilis
  MIC: inactive
Staphylococcus aureus
  MIC: inactive
[1]
  MIC: inactive
Escherichia coli
  MIC: inactive
Pseudomonas aeruginosa
  MIC: inactive
SK-OV-3
  IC50: Not Active
HeLa
  pIC50: 4.01
MDA-MB-231
  pIC50: 4.63
DU-145
  pIC50: 4.51
CHO-K1
  pIC50: 4.35

## CCCCCCCCCCCCCCCC(=O)Nc1nnc(S[C@@H]2O[C@H](CO)[C@H](O)[C@H](O)[C@H]2O)s1
Klebsiella pneumoniae
  MIC: > 150 µg/mL
Bacillus subtilis
  MIC: > 150 µg/mL
Staphylococcus aureus
  MIC: > 150 µg/mL
[1]
  MIC: > 150 µg/mL
Escherichia coli
  MIC: > 150 µg/mL
Pseudomonas aeruginosa
  MIC: > 150 µg/mL
SK-OV-3
  IC50: Not Active
HeLa
  pIC50: 4.85
MDA-MB-231
  pIC50: 4.21
DU-145
  IC50: Not Active
CHO-K1
  IC50: Not Active

## CCCCCCCCCCCC(=O)Nc1nnc(S[C@@H]2O[C@H](CO)[C@H](O)[C@H](O)[C@H]2O)s1
Klebsiella pneumoniae
  MIC: 12.5 µg/mL (≈ 26.2 µM)
Bacillus subtilis
  MIC: 25 µg/mL (≈ 52.3 µM)
Staphylococcus aureus
  MIC: > 150 µg/mL
[1]
  MIC: > 150 µg/mL
Escherichia coli
  MIC: > 150 µg/mL
Pseudomonas aeruginosa
  MIC: > 150 µg/mL
SK-OV-3
  IC50: Not Active
HeLa
  pIC50: 5.06
MDA-MB-231
  pIC50: 4.49
DU-145
  IC50: Not Active
CHO-K1
  IC50: Not Active

## CCCCCC(=O)Nc1nnc(S[C@@H]2O[C@H](COC(C)=O)[C@H](OC(C)=O)[C@H](OC(C)=O)[C@H]2OC(C)=O)s1
Klebsiella pneumoniae
  MIC: inactive
Bacillus subtilis
  MIC: inactive
Staphylococcus aureus
  MIC: inactive
[1]
  MIC: inactive
Escherichia coli
  MIC: inactive
Pseudomonas aeruginosa
  MIC: inactive
SK-OV-3
  IC50: Not Active
HeLa
  pIC50: 4.70
MDA-MB-231
  pIC50: 4.60
DU-145
  IC50: Not Active
CHO-K1
  pIC50: 4.61

## CCCCCCCCCCCCCCCCCC(=O)Nc1nnc(S[C@@H]2O[C@H](CO)[C@H](O)[C@H](O)[C@H]2O)s1
Klebsiella pneumoniae
  MIC: > 150 µg/mL
Bacillus subtilis
  MIC: > 150 µg/mL
Staphylococcus aureus
  MIC: > 150 µg/mL
[1]
  MIC: > 150 µg/mL
Escherichia coli
  MIC: > 150 µg/mL
Pseudomonas aeruginosa
  MIC: > 150 µg/mL
SK-OV-3
  IC50: Not Active
HeLa
  pIC50: 4.95
MDA-MB-231
  pIC50: 4.17
DU-145
  IC50: Not Active
CHO-K1
  IC50: Not Active
